The target in this assay is T1, human cannabinoid CB2 receptor (Homo sapiens, UniProt P34972).
T1 construct: expressed in transfected cells; host or cells: Saccharomyces cerevisiae strain MMY23 (integration at the ura3 locus, GPD promoter)
Description: Cannabinoid CB2 receptor agonist activity, yeast reporter assay. As to conditions: for Emax: relative to HU210, yeast cells expressing human CB2, read-out: efficacy value (Emax) at the cloned human cannabinoid CB2 receptor; for EC50: yeast (Saccharomyces cerevisiae) cells expressing human CB2, agonist, read-out: EC50 at the cloned human cannabinoid CB2 receptor. The assay is classed as cell-based. On the procedure: The cannabinoid CB2 receptor agonist activity of the compounds of formula (I) was determined in accordance with the following experimental method.
Yeast (Saccharomyces cerevisiae) cells expressing the human cannabinoid CB2 receptor were generated by integration of an expression cassette into the ura3 chromosomal locus of yeast strain MMY23. This cassette consisted of DNA sequence encoding the human CB2 receptor flanked by the yeast GPD promoter to the 5′ end of CB2 and a yeast transcriptional terminator sequence to the 3′ end of CB2. MMY23 expresses a yeast/mammalian chimeric G-protein alpha subunit in which the C-terminal 5 amino acids of Gpa1 are replaced with the C-terminal 5 amino acids of human Gαi3 (as described in Brown et al. (2000), Yeast 16:11-22). Cells were grown at 30° C. in liquid Synthetic Complete (SC) yeast media (Guthrie and Fink (1991), Methods in Enzymology, Vol. 194) lacking uracil, tryptophan, adenine and leucine to late logarithmic phase (approximately 6 OD600/ml).
Agonists were prepared as 10 mM stocks in DMSO. EC50 values (the concentration required to produce 50% maximal response) were estimated using dilutions of between 3- and 5-fold (BiomekFX, Beckman) into DMSO. Agonist solutions in DMSO (1% final assay volume) were transferred into black, clear bottom, microtitre plates from NUNC (96- or 384-well). Cells were suspended at a density of 0.2 OD600/ml in SC media lacking histidine, uracil, tryptophan, adenine and leucine and supplemented with 10 mM 3-aminotriazole, 0.1M sodium phosphate pH 7.0, and […] fluorescein di-β-D-glucopyranoside (FDGlu). This mixture (50 ul per well for 384-well plates, 200 ul per well for 96-well plates) was added to agonist in the assay plates (Multidrop 384, Labsystems). After incubation at 30° C. for 24 hours, fluorescence resulting from degradation of FDGlu to fluorescein due to exoglucanase, an endogenous yeast enzyme produced during agonist-stimulated cell growth, was determined using a Spectrofluor microtitre plate reader (Tecan; excitation wavelength: 485 nm; emission wavelength: 535 nm). Fluorescence was plotted against compound concentration an iteratively curve fitted using a four parameter fit to generate a concentration effect value. Efficacy (Emax) was calculated from the equation
Emax=Max[compound X]−Min[compound X]/Max[HU210]−Min[HU210]×100%
where Max[compound X] and Min[compound X] are the fitted maximum and minimum respectively from the concentration effect curve for compound X, and Max[HU210] and Min[HU210] are the fitted maximum and minimum respectively from the concentration effect curve for (6aR,10aR)-3-(1,1′-Dimethylheptyl)-6a,7,10,10a-tetrahydro-1-hydroxy-6,6-dimethyl-6H-dibenzo[b,d]pyran-9-methanol (HU210; available from Tocris). Equieffective molar ratio (EMR) values were calculated from the equation
Where EC50 [compound X] is the EC50 of compound X and EC50 [HU210] is the EC50 of HU210.
(In a reporter assay the amount or activity of a reporter protein is the signal.)

From patent publication US20090264452A1 (priority 2004, published 2009) come the findings set out here.

Molecules are shown by their SMILES. Where a name gives a salt, the structure may show the parent alone. Where only a bound is given, the exact number is not on record here.

T1 sequence (P34972 whole entry): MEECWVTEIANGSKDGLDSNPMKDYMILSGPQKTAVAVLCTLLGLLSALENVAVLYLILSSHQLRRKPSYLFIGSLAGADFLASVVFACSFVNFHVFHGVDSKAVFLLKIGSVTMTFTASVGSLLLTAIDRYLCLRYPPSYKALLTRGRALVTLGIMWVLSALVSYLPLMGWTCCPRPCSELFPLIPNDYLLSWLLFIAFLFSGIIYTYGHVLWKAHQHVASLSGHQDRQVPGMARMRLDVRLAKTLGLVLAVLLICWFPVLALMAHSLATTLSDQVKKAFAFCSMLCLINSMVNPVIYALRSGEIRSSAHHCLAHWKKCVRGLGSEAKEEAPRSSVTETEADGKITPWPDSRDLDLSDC

In the case of `CC(C)c1nc(Nc2cccc(Cl)c2)ncc1C(=O)NCC1CCCCC1` [Example 1], the Emax (commonly the size of the effect at its maximum, as opposed to the concentration needed) was more than 50% and the EC50 (in general, the concentration needed to bring the measured effect to its halfway point) is less than 300 nM.
On the same counts, the results for `CC(C)c1nc(Nc2cccc(Cl)c2)ncc1C(=O)NCC1CCOCC1` [Example 2, 2-(3-Chlorophenylamino)-4-isopropylpyrimidin-5-carboxylic acid (tetrahydro-pyran-4-ylmethyl)-amide] are more than 50% and less than 300 nM.
Take `CCc1nc(Nc2cccc(Cl)c2)ncc1C(=O)NCC1CCCCC1` [Example 3]: the Emax was more than 50% and the EC50 was less than 300 nM.
`CCc1nc(Nc2cccc(Cl)c2)ncc1C(=O)NCC1CCOCC1` [Example 4, 2-(3-Chlorophenylamino)-4-ethylpyrimidin-5-carboxylic acid (tetrahydro-pyran-4-ylmethyl)-amide]: the Emax was more than 50% and the EC50 was in the range of 300 to 1000 nM.
As for `CC(c1nc(Nc2cccc(Cl)c2)ncc1C(=O)NCC1CCOCC1)N(C)C` (stereo not shown) [Example 5, 2-[(3-chlorophenyl)amino]-4-[1-(dimethylamino)ethyl]-N-(tetrahydro-2H-pyran-4-ylmethyl)-5-pyrimidinecarboxamide hydrochloride], the Emax is less than 50% and the concentration giving a half-maximal response (EC50) was more than 1000 nM.
